Reference: patent US10232043B2, “Photoactivated molecules for light-induced modulation of the activity of electrically excitable cells and methods of using the same” (UNIVERSITY OF SOUTHERN CALIFORNIA, priority 2015, dated 2019)
Entries after “also recorded” stand apart in the source; their conditions may differ.

Experiments:
HEK293T cells = test: Effect of PF6:Cl counter ion ratio of Rubpy-C17 on HEK293T cells; type: cell-based; details: for membrane incorporation: 10 minutes; for Comments (compound stability): degradation seen after two months
Method: In some embodiments, the 20 mg of Rubpy-C17 is stored in −20° C. with desiccant in the dark. […] 253 μl of DMSO is then added into the original bottle containing Rubpy-C17 to make 100 mM stock solution. In some embodiments, the stock solution is aliquot and stored in −20° C. with desiccant in the dark.
In some examples, on the day before or on, the same day of the experiment, the following 2.5 mM external solution is prepared using the following steps. The external solution is warmed up to 37° C. For […] of the external solution, 0.176 grams of absorbic acid was added. Another 240 μL 5M NaOH was added to adjust the pH to between about 7.2-7.4. The absorbic solution can then be filtered through a 0.2 μm filter. The solution is then stored in the dark in 4° C. In some examples, the solution must be used within one week.
The 100 mM of Rubpy solution is first thawed from −20° C. 100 mM Rubpy is then diluted to 10 mM Rubpy: 2 μL 100 mM Rubpy+18 μL DMSO. In some examples, this is vortexted to mix and then centrifuged down with a small bench-top. The culture, medium is aspirated and the cells are rinsed with external solution several times. The external solution can then be aspirated. In some examples, enough of the external solution is left on the cells to prevent it from drying. 500 μL of external solution with 2.5 mM of ascorbic acid can then be added.
In some examples, 1 μL of 10 mM of Rubpy to […] of external solution with 2.5 mM ascorbic acid and mixed well. This should produce a final concentration of 10 μM of Rubpy with 0.1% DMSO. This mixed solution is then added to the above referenced cells and incubated for 10 minutes.
The solution can then be aspirated from the plate and rinsed with regular external solution several times. 2 mL of external solution is added to 2.5 mM ascorbic acid for recording. For each plate, a baseline control is taken by recording the first cell before performing any light-stimulating protocol. The light-stimulus can include 10-40 s in duration and bandpassed at 455-495 nm (blue light).
As discussed above, the mixture a 10 μM of RubpyC17 solution was placed in 10 HEK293T cells.

HEK cells = test: Membrane incorporation of Rubpy-C17 analogues; type: cell-based; details: FIGS. 6A-6C, 7A-7B
Excerpt: In some examples, RubpyC17 can be changed to provide a non-toxic, faster, and highly reversible system that imparts light sensitivity in multiple biological systems. In some embodiments, changing of bipyridine substituents (as shown in as illustrated in FIG. 3) can result in a Ru^3+/2+ reduction potential dynamic range of several hundred millivolts. […] In some examples, the carboxylic acid substituents probe the mechanistic role of charge in the photovoltaic nanoswitch system in addition to the role of the reduction potential. FIGS. 5A-5D illustrates an embodiment of various substituents in place of RubpyC17 in HEK cells. For example, FIG. 5A illustrates TMbpyRubpyC17(PF6) substituted for RubpyC17; FIG. 5B illustrates TMbpyRubpyC17(Cl) substituted for RubpyC17; FIG. 5C illustrates COOHbpyRubpyC17(Na) substituted for RubpyC17; and FIG. 5C illustrates COOHbpyRubpyC17(tBu4N+) substituted for RubpyC17.
In some examples, the RubpyC17 molecule can be configured for non-specific targeting and optimized membrane incorporation of photoactive molecular artificial retinas (“MARs”).
In some embodiments, membrane incorporation can be an important characteristic of the current system. In some embodiments, changing the counter ion identity of Rubpy-C17 can help to change membrane incorporation properties. […] FIG. 7C illustrates the effect that a treatment of 1 μM of Rubpy-Oleic Acid has on HEK cells while FIG. 7D illustrates the effect that a treatment of 10 μM of Rubpy-Linoleic Acid has on HEK cells.

[1] = Time-resolved luminescence and electron transfer of D-B-A complex; type: physicochemical; details: degassed dichloromethane, excited at 355 nm, monitored at 560 nm
Method: Time-resolved emission spectroscopy was used to characterize the MLCT excited state of the D-B-A complex (see FIGS. 24A and 24B). Luminescence decay kinetics were recorded in degassed dichloromethane. The D-B-A complex was excited at 355 nm with an 8-ns laser pulse and luminescence was monitored at 560 nm. […] For comparison, the MLCT lifetime of the reference complex, [Re(CO)3(bpy)(py)]+, determined under identical experimental conditions, is 550 ns.
Self-association often leads to enhanced quenching, due to the formation of aggregates with short intermolecular donor-acceptor distances.
While the rate of intramolecular electron transfer is concentration independent, intermolecular quenching processes vary predictably with concentration. As such, it is possible to separate the two quenching mechanisms and obtain rate constants for each. Time-resolved luminescence measurements at a series of D-B-A concentrations allow a second order intermolecular quenching rate to be determined. As the concentration was increased, shorter lifetimes were recorded in both dichloromethane and acetonitrile. […]
Intramolecular electron transfer may also proceed through a through-space coupling mechanism. […] If β values in this range are used, the through-solvent intramolecular electron transfer rate is predicted to fall between 10^4 and 10^6 s^−1, which is competitive with calculated through-bond tunneling rates.

chromaffin cells = test: Cell-attached patch test for membrane perforation; type: cell-based, mouse; details: in patch pipette, RubpyC17 18 μM, 10 min, amphotericin B within 5 min
Excerpt: FIGS. 21A-21H depict data from various experiments related to characteristics of RubpyC17-loaded cells. […] Inset images shown to the right of trace confirmed proper integration of RubpyC17 in patched cells. FIGS. 21C-21E show the light-induced action potential firing in chromaffin cells was not due to biophysical changes in voltage-gated ion channels as there were no significant changes in current-voltage relationships (21C-21D) nor in steady-state activation curve (21E) in RubpyC17-loaded chromaffin cells before (open circle) or during (open circle) light illumination. […] Peak inward currents from each stimulation jump were plotted against corresponding stimulating voltages (n=6). […] Data from representative cell is shown (n=5). […] Currents resulting from capacitor-like behavior of chromaffin cell membranes during hyperpolarizing jumps to −85 mV from a resting membrane potential of −80 mV were recorded 5 min following giga-seal formation for amphoterecin B (bottom trace) or 10 min following giga-seal formation for RubpyC17 (top trace).
Finally, to test whether illumination of RubpyC17 incorporated in cell membranes causes nonspecific membrane poration or other damage, 18 μM RubpyC17 was loaded inside a patch pipette and attached to a cell (gigaseal formation) in the cell-attached configuration. This is the same configuration used routinely for perforated-patch recording. […]

Nav1.6 = Nav1.6 (Homo sapiens, UniProt Q9UQD0); details: extracellular loop S1-S2 and S3-S4 in domain II; cited from earlier work
Nav1.6, sequence (Q9UQD0 whole entry, the tested form may be a part): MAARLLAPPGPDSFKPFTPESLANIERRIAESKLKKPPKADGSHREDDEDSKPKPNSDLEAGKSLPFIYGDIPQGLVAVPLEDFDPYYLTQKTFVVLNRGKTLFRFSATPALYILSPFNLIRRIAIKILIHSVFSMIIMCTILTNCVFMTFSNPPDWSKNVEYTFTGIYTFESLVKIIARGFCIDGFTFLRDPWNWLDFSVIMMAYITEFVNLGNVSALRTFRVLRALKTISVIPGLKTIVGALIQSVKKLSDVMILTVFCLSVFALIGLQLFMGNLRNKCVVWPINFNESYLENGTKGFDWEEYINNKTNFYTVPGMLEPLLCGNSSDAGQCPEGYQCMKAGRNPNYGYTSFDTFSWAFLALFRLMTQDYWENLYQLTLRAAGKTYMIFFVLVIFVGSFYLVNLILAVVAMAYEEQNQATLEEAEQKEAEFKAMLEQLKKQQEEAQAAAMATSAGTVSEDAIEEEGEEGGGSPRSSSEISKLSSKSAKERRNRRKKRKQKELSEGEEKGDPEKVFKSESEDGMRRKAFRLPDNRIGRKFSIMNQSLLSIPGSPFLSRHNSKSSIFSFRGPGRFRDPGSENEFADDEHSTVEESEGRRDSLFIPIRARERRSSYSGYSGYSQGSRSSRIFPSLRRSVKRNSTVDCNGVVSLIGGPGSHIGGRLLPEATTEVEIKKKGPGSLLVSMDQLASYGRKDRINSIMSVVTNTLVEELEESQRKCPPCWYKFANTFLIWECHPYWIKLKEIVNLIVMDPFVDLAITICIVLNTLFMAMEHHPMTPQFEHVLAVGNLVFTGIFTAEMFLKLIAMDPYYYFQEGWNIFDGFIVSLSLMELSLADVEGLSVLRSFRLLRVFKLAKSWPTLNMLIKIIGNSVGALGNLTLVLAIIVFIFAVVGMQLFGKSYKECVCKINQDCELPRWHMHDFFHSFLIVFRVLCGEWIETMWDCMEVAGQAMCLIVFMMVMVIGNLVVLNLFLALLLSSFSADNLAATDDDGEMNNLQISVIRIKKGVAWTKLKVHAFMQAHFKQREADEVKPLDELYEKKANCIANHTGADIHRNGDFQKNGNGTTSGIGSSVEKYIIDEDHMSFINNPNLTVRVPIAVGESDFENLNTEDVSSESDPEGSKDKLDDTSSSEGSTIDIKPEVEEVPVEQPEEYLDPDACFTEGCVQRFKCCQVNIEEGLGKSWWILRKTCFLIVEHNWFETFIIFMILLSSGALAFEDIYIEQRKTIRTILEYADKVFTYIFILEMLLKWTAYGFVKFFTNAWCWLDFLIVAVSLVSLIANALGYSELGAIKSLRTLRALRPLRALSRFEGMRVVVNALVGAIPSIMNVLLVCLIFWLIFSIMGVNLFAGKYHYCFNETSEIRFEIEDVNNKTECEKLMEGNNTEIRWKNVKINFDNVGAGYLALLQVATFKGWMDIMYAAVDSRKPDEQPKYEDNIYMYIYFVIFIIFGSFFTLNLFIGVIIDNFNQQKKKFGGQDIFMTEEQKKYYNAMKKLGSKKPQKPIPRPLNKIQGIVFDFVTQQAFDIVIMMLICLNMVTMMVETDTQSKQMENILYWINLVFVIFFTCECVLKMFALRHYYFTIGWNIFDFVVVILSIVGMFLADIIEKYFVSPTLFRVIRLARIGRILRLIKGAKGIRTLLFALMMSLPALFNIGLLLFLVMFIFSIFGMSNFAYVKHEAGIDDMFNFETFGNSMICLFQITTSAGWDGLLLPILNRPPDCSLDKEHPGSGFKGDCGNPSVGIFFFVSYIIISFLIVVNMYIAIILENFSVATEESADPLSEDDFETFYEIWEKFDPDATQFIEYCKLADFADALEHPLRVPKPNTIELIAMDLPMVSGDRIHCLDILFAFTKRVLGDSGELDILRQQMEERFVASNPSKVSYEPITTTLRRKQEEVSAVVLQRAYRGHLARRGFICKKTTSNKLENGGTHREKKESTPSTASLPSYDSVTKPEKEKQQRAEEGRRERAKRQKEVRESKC

CCCCCCCCCCCCCCCCCc1ccnc(-c2cc(C)ccn2)c1.[Cl-].[Cl-].[Ru+2].c1ccc(-c2ccccn2)nc1.c1ccc(-c2ccccn2)nc1 [PF6:Cl 0:1]
Cell Death (HEK293T cells; 10 μM, HEK293T cells): cell death was observed
membrane incorporation (HEK293T cells; 10 μM, HEK293T cells): even incorporation
membrane incorporation (HEK293T cells; 10 μM, HEK293T cells, listed as Rubpy-C17 with only CL Counter ions): good membrane incorporation was initially observed
Comments (compound stability) (HEK293T cells): subsequent degradation was observed after two months; also recorded: Unstable,
Comments (compound stability) (HEK293T cells; listed as Rubpy-C17 with only CL Counter ions): compound degradation was seen subsequently after two months
membrane incorporation (HEK cells): exceptional membrane incorporation

CCCCCCCC/C=C\CCCCCCCC(=O)Nc1cc2cccnc2c2ncccc12.[Ru+2].c1ccc(-c2ccccn2)nc1.c1ccc(-c2ccccn2)nc1 [Ruphen-C18:1]
membrane incorporation (HEK cells): exceptional membrane incorporation; also recorded: excellent membrane incorporation

CCCCC/C=C\C/C=C\CCCCCCCC(=O)Nc1cc2cccnc2c2ncccc12.[Ru+2].c1ccc(-c2ccccn2)nc1.c1ccc(-c2ccccn2)nc1 [Ruphen-C18:2]
membrane incorporation (HEK cells): excellent membrane incorporation

[C-]#[O+].[C-]#[O+].[C-]#[O+].[Re+].c1ccc(-c2ccccn2)nc1.c1ccncc1 [[Re(CO)3(bpy)(py)]+]
luminescence (MLCT) lifetime [1]: 550 ns

C[C@@H]1[C@H](O)[C@@H](C)/C=C/C=C/C=C/C=C/C=C/C=C/C=C/[C@H](O[C@@H]2O[C@H](C)[C@@H](O)[C@H](N)[C@@H]2O)C[C@@H]2O[C@](O)(C[C@@H](O)C[C@@H](O)[C@H](O)CC[C@@H](O)C[C@@H](O)CC(=O)O[C@H]1C)C[C@H](O)[C@H]2C(=O)O [amphotericin B, reference compound]
capacitive charging transient (membrane perforation) (chromaffin cells): sizable capacitive charging transient

CCCCCCCCCCCCCCCCCc1ccnc(-c2cc(C)ccn2)c1.Cc1cnc(-c2cc(C)c(C)cn2)cc1C.Cc1cnc(-c2cc(C)c(C)cn2)cc1C.[Ru+2] [tetramethyl-substituted bpy Rubpy-C17]
membrane incorporation (HEK cells): does not evenly incorporate

CssII
binding affinity (Nav1.6): nanomolar affinity
